Source: patent US20240270762A1, “PENICILLIN-BINDING PROTEIN INHIBITORS” (priority 2021, published 2024)

Columns and labels:
[1] = system: P. aeruginosa CDC-0110; test: microbe, parasite or virus in culture; type: cell-based; settings: Pseudomonas aeruginosa, CDC0110, read-out: Minimum inhibitory concentration, P. aeruginosa CDC-0110
[2] = target: T1, PBP1a from Acinetobacter baumannii (ATCC 19606) (Acinetobacter baumannii, UniProt A0ABX6CK30); test: Bocillin-FL fluorescence polarization competition binding, A. baumannii PBP1a; settings: fluorescence polarization competition binding assay using Bocillin-FL; read-out: A. baumannii PBP1a Potency
T1 sequence (A0ABX6CK30 1-851): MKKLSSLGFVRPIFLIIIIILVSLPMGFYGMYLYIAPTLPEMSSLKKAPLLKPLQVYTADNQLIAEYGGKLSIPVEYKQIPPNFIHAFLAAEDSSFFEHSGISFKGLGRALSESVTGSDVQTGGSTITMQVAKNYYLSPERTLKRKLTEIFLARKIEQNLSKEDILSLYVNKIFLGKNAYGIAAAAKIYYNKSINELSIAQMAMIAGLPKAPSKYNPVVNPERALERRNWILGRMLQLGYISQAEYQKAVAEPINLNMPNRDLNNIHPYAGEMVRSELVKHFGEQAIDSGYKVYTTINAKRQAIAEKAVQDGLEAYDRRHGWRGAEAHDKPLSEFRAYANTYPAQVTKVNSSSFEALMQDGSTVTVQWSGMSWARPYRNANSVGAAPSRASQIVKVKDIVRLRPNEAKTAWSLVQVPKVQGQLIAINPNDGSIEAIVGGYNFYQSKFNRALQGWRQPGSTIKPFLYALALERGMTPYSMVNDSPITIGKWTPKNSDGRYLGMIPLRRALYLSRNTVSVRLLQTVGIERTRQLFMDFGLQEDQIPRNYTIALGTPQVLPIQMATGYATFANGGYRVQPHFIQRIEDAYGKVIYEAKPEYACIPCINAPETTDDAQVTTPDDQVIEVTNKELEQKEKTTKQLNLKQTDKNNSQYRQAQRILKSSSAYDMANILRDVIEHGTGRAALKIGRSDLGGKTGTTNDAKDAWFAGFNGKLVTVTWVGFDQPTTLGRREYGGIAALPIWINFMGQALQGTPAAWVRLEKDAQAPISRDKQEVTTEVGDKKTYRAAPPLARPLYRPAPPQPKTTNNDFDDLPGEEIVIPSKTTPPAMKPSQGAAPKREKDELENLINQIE
Method in brief: (§1)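 Purified PBP was preincubated with inhibitor (E. coli PBP3 1.5 μM, 30 min; P. aeruginosa PBP3 0.75 μM, A. baumannii PBP3 0.2 μM and PBP1a 1 μM, 15 min), then Bocillin-FL (0.1 μM; 0.05 μM for PBP1a) added and FP read up to 60 min. EC50 = 50% loss of bound probe.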

[3] = target: T2, PBP3 from Acinetobacter baumannii (ATCC 19606) (Acinetobacter baumannii, UniProt A0ABX6CK25); test: Bocillin-FL fluorescence polarization competition binding, A. baumannii PBP3; settings: fluorescence polarization competition binding assay using Bocillin-FL; read-out: A. baumannii PBP3 Potency
T2 sequence (A0ABX6CK25 64-610): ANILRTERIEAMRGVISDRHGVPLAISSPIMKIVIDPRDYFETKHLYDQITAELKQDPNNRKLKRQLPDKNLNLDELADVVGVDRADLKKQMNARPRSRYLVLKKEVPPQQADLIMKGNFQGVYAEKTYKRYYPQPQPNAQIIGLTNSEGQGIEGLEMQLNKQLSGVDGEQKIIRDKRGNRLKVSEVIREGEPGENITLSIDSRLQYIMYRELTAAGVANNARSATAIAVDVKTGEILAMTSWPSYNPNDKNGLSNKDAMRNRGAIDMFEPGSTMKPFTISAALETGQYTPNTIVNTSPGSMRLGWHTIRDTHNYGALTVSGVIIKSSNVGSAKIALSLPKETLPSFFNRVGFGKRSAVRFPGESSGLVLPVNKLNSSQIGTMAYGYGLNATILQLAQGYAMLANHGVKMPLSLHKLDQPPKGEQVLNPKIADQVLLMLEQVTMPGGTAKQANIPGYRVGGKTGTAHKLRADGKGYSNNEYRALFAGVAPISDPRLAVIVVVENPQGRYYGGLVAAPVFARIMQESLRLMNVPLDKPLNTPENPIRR
Method in brief: as §1

Q: How did the MIC [1] turn out when O=C(O)c1c(F)ccc2c1OB(O)[C@@H](NC(=O)[C@H](NC(=O)N1CCN(C3CCN(C(=O)c4cc(O)c(O)c(Cl)c4)CC3)C1=O)c1ccc(P(=O)(O)O)cc1)C2 [Example 496, (R)-3-((R)-2-(3-(1-(3-chloro-4,5-dihydroxybenzoyl)piperidin-4-yl)-2-oxoimidazolidine-1-carboxamido)-2-(4-phosphonophenyl)acetamido)-7-fluoro-2-hydroxy-3,4-dihydro-2H-benzo[e][1,2]oxaborinine-8-carboxylic acid] was run?
A: The MIC was less than 1 µg/mL.

Q: O=C(O)c1c(F)ccc2c1OB(O)[C@@H](NC(=O)C(NC(=O)N1CCN(C3CCN(C(=O)Nc4cc(O)cc(F)c4)CC3)C(=O)C1=O)c1cc(F)c(O)c(O)c1Cl)C2 (stereo partly drawn) [Example 481, (3R)-3-(2-(2-chloro-5-fluoro-3,4-dihydroxyphenyl)-2-(4-(1-((3-fluoro-5-hydroxyphenyl)carbamoyl)piperidin-4-yl)-2,3-dioxopiperazine-1-carboxamido)acetamido)-7-fluoro-2-hydroxy-3,4-dihydro-2H-benzo[e][1,2]oxaborinine-8-carboxylic acid] was tested. Which IC50 [2] did it give?
A: The IC50 was greater than 250 µM.

Q: And the IC50 [3]?
A: The IC50 was less than 10 µM.

Q: With O=C(O)c1cccc2c1OB(O)[C@@H](NC(=O)[C@H](NC(=O)N1CCN(S(=O)(=O)c3ccc(O)c(O)c3Cl)C1=O)c1ccc(P(=O)(O)O)cc1)C2 [Example 509, (R)-3-((R)-2-(3-((2-chloro-3,4-dihydroxyphenyl)sulfonyl)-2-oxoimidazolidine-1-carboxamido)-2-(4-phosphonophenyl)acetamido)-2-hydroxy-3,4-dihydro-2H-benzo[e][1,2]oxaborinine-8-carboxylic acid] as the compound, how does the MIC [1] read?
A: The MIC was less than 1 µg/mL.

Q: Which MIC [1] does the source give for O=C(O)c1c(F)ccc2c1OB(O)[C@@H](NC(=O)C(NC(=O)N1CCN(S(=O)(=O)c3ccc(O)c(O)c3Cl)C1=O)c1ccc(P(=O)(O)O)cc1)C2 (stereo partly drawn) [Example 505, (3R)-3-(2-(3-((2-chloro-3,4-dihydroxyphenyl)sulfonyl)-2-oxoimidazolidine-1-carboxamido)-2-(4-phosphonophenyl)acetamido)-7-fluoro-2-hydroxy-3,4-dihydro-2H-benzo[e][1,2]oxaborinine-8-carboxylic acid] here?
A: Its MIC is less than 1 µg/mL.

Q: How did the IC50 [2] turn out when O=C(O)c1c(F)ccc2c1OB(O)[C@@H](NC(=O)[C@H](NC(=O)N1CCN(C3CCN(C(=O)Nc4cccc(O)c4Cl)CC3)C(=O)C1=O)c1cc(F)c(O)c(O)c1Cl)C2 [Example 482, (R)-3-((R)-2-(4-(1-((2-chloro-3-hydroxyphenyl)carbamoyl)piperidin-4-yl)-2,3-dioxopiperazine-1-carboxamido)-2-(2-chloro-5-fluoro-3,4-dihydroxyphenyl)acetamido)-7-fluoro-2-hydroxy-3,4-dihydro-2H-benzo[e][1,2]oxaborinine-8-carboxylic acid] was run?
A: Its IC50 is greater than 250 µM.

Q: What about the IC50 [3] of the same compound?
A: Its IC50 is less than 10 µM.

Q: Which IC50 [2] does the source give for O=C(O)c1c(F)ccc2c1OB(O)[C@@H](NC(=O)C(NC(=O)N1CCN(C3CCN(C(=O)Nc4cc(O)ccc4Cl)CC3)C(=O)C1=O)c1cc(F)c(O)c(O)c1Cl)C2 (stereo partly drawn) [Example 483, (3R)-3-(2-(2-chloro-5-fluoro-3,4-dihydroxyphenyl)-2-(4-(1-((2-chloro-5-hydroxyphenyl)carbamoyl)piperidin-4-yl)-2,3-dioxopiperazine-1-carboxamido)acetamido)-7-fluoro-2-hydroxy-3,4-dihydro-2H-benzo[e][1,2]oxaborinine-8-carboxylic acid] here?
A: Its IC50 is greater than 250 µM.

Q: What about the IC50 [3] of the same compound?
A: Its IC50 is less than 10 µM.

Q: Which IC50 [2] does the source give for O=C(O)c1c(F)ccc2c1OB(O)[C@@H](NC(=O)[C@H](NC(=O)N1CCN(C3CCN(C(=O)Nc4c(F)ccc(O)c4F)CC3)C1=O)c1cc(F)c(O)c(O)c1Cl)C2 (single isomer, unassigned) [Example 454] here?
A: The IC50 was greater than 250 µM.

Q: And the IC50 [3]?
A: The IC50 was less than 10 µM.

Q: How did the IC50 [2] turn out when O=C(O)c1c(F)ccc2c1OB(O)[C@@H](NC(=O)C(NC(=O)N1CCN(C3CCN(C(=O)Nc4cc(O)cc(Cl)c4)CC3)C(=O)C1=O)c1cc(F)c(O)c(O)c1Cl)C2 (stereo partly drawn) [Example 484, (3R)-3-(2-(2-chloro-5-fluoro-3,4-dihydroxyphenyl)-2-(4-(1-((3-chloro-5-hydroxyphenyl)carbamoyl)piperidin-4-yl)-2,3-dioxopiperazine-1-carboxamido)acetamido)-7-fluoro-2-hydroxy-3,4-dihydro-2H-benzo[e][1,2]oxaborinine-8-carboxylic acid] was run?
A: The IC50 was greater than 250 µM.

Q: And the IC50 [3]?
A: The IC50 was less than 10 µM.

Q: O=C(O)c1cccc2c1OB(O)[C@@H](NC(=O)C(NC(=O)N1CCN(Cc3cc(F)c(O)c(O)c3Cl)C(=O)C1=O)c1ccc(P(=O)(O)O)cc1)C2 (stereo partly drawn) [Example 164, (3R)-3-(2-(4-(2-chloro-5-fluoro-3,4-dihydroxybenzyl)-2,3-dioxopiperazine-1-carboxamido)-2-(4-phosphonophenyl)acetamido)-2-hydroxy-3,4-dihydro-2H-benzo[e][1,2]oxaborinine-8-carboxylic acid] was tested. Which IC50 [2] did it give?
A: The IC50 was greater than 250 µM.

Q: What about the IC50 [3] of the same compound?
A: The IC50 was less than 10 µM.

Q: What does the source list for O=C(O)c1c(F)ccc2c1OB(O)[C@@H](NC(=O)C(NC(=O)N1CCN(C3CCN(C(=O)Nc4ccc(F)c(O)c4F)CC3)C1=O)c1cc(F)c(O)c(O)c1Cl)C2 (stereo partly drawn) [Example 452, (3R)-3-(2-(2-chloro-5-fluoro-3,4-dihydroxyphenyl)-2-(3-(1-((2,4-difluoro-3-hydroxyphenyl)carbamoyl)piperidin-4-yl)-2-oxoimidazolidine-1-carboxamido)acetamido)-7-fluoro-2-hydroxy-3,4-dihydro-2H-benzo[e][1,2]oxaborinine-8-carboxylic acid]?
A: IC50 [2]: > 250 µM; IC50 [3]: < 10 µM

Q: O=C(O)c1c(F)ccc2c1OB(O)[C@@H](NC(=O)[C@H](NC(=O)N1CCN(C3CCN(C(=O)Nc4cc(O)cc(F)c4)CC3)C1=O)c1cc(F)c(O)c(O)c1Cl)C2 (single isomer, unassigned) [Example 450] was tested. Which IC50 [2] did it give?
A: Its IC50 is greater than 250 µM.

Q: What about the IC50 [3] of the same compound?
A: The IC50 was less than 10 µM.

Q: Which IC50 [2] does the source give for O=C(O)c1c(F)ccc2c1OB(O)[C@@H](NC(=O)C(NC(=O)N1CCN(C3CCN(C(=O)Nc4ccc(F)c(O)c4)CC3)C(=O)C1=O)c1cc(F)c(O)c(O)c1Cl)C2 (stereo partly drawn) [Example 480, (3R)-3-(2-(2-chloro-5-fluoro-3,4-dihydroxyphenyl)-2-(4-(1-((4-fluoro-3-hydroxyphenyl)carbamoyl)piperidin-4-yl)-2,3-dioxopiperazine-1-carboxamido)acetamido)-7-fluoro-2-hydroxy-3,4-dihydro-2H-benzo[e][1,2]oxaborinine-8-carboxylic acid] here?
A: Its IC50 is greater than 250 µM.

Q: And the IC50 [3]?
A: The IC50 was less than 10 µM.

Q: For O=C(O)c1c(F)ccc2c1OB(O)[C@@H](NC(=O)C(NC(=O)N1CCN(C3CCN(C(=O)Nc4cc(O)ccc4F)CC3)C(=O)C1=O)c1cc(F)c(O)c(O)c1Cl)C2 (stereo partly drawn) [Example 479, (3R)-3-(2-(2-chloro-5-fluoro-3,4-dihydroxyphenyl)-2-(4-(1-((2-fluoro-5-hydroxyphenyl)carbamoyl)piperidin-4-yl)-2,3-dioxopiperazine-1-carboxamido)acetamido)-7-fluoro-2-hydroxy-3,4-dihydro-2H-benzo[e][1,2]oxaborinine-8-carboxylic acid], which IC50 [2] is on record?
A: Its IC50 is greater than 250 µM.

Q: And the IC50 [3]?
A: Its IC50 is less than 10 µM.

Q: Which results are given for O=C(O)c1c(F)ccc2c1OB(O)[C@@H](NC(=O)[C@H](NC(=O)N1CCN(C3CCN(C(=O)Nc4ccc(F)c(O)c4)CC3)C1=O)c1cc(F)c(O)c(O)c1Cl)C2 (single isomer, unassigned) [Example 449]?
A: IC50 [2]: > 250 µM; IC50 [3]: < 10 µM

Q: For O=C(O)c1c(F)ccc2c1OB(O)[C@@H](NC(=O)[C@H](NC(=O)N1CCN(C3CCN(C(=O)Nc4cc(O)ccc4Cl)CC3)C1=O)c1cc(F)c(O)c(O)c1Cl)C2 (single isomer, unassigned) [Example 448], which IC50 [2] is on record?
A: Its IC50 is greater than 250 µM.

Q: And the IC50 [3]?
A: The IC50 was less than 10 µM.
